Values of other authors as cited in patent EP1923060A1, “Combinations of a sphingolipid and an HMG-CoA reductase inhibitor for treating hypercholesterolemia” (Nederlandse Organisatie voor …, priority 2006, dated 2008).

Legend:
[1] = system: galactosamine-injured primary rat hepatocytes; details: Kim et al., Phytotherapy Res. (2000) 14:448-451
[2] = in humans
C57bI mice = details: intraperitoneal injection; US 2004/0171557

CCCCCCCCC/C=C\CC/C=C/[C@@H](O)[C@H](CO[C@@H]1O[C@H](CO)[C@@H](O)[C@H](O)[C@H]1O)NC(=O)CCCCCCCCCCCCCCC [LCC, 1-O-(β-D-glucopyranosyl)-(2S,3R,4E,8Z)-2-N-palmityloctadecasphinga-4,8-diene]
release into the culture medium of GPT and SDH [1]: reduce the release

CCCCCCCCCCCCCC[C@@H](O)[C@@H](O)[C@@H](N)CO [phytosphingosine]
plasma (VLDL and LDL) cholesterol and triglyceride levels [2]: demonstrated decisively

glucocerebroside
liver fat content (C57bI mice): may be reduced
